Data reported in ChEMBL document CHEMBL1201862, “PubChem BioAssay data set” (2004).
Activity calls are given as the source filed them.

Columns and labels:
[1] = NIH-3T3 fibroblast cytotoxicity, dose response, cytotoxicity control, cell-based, fluorescence, Alamar Blue, secondary assay (AID 2327); format: functional;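 note: NIH-3T3 mouse fibroblasts cultured with fluconazole at 8 µg/mL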
INS1 = assay: INS-1E survival protection against cytokine death – cell-based, luminescence, retest, dose response (AID 449756); format: functional; settings: Rattus norvegicus;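 note: cell death triggered by IL-1 beta plus TNF-alpha plus IFN-gamma mixture; protective hits raise ATP signal compared with cytokine alone wells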
[2] = biological target: ATP-dependent molecular chaperone HSP82 (Candida albicans (strain WO-1) (Yeast), UniProt C4YTQ8); assay: steroid-induced GRE reporter decrease in yeast – S. cerevisiae, luminescence, Hsp90 inhibitor project, dose response (AID 2400); format: functional, cell-based;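 note: beta-galactosidase luminescence from glucocorticoid response element reporter as proxy for Hsp90 function; inhibitor potency where signal loss means Hsp90 inhibition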
[3] = decrease of insulin promoter-GFP reporter – imaging, high-content screening, mouse beta cells (AID 1628); format: functional; settings: MIN6
[4] = biological target: T1, Serine/threonine-protein phosphatase (Candida dubliniensis (strain CD36 / CBS 7987 / NCPF 3949 / NRRLY-17841) (Yeast), UniProt B9W6M3); assay: blockers of CaCl2-induced CDRE-lacZ signaling – S. cerevisiae, luminescence, secondary, dose response (AID 2388); format: functional, cell-based;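 note: yeast reporter cells carrying a calcineurin-responsive lacZ construct stimulated with calcium chloride; luminescent beta-galactosidase reporter signal in whole cells rather than isolated phosphatase activity; potency for inhibition where a drop in reporter signal means calcineurin blockade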
T1 sequence (B9W6M3 whole entry): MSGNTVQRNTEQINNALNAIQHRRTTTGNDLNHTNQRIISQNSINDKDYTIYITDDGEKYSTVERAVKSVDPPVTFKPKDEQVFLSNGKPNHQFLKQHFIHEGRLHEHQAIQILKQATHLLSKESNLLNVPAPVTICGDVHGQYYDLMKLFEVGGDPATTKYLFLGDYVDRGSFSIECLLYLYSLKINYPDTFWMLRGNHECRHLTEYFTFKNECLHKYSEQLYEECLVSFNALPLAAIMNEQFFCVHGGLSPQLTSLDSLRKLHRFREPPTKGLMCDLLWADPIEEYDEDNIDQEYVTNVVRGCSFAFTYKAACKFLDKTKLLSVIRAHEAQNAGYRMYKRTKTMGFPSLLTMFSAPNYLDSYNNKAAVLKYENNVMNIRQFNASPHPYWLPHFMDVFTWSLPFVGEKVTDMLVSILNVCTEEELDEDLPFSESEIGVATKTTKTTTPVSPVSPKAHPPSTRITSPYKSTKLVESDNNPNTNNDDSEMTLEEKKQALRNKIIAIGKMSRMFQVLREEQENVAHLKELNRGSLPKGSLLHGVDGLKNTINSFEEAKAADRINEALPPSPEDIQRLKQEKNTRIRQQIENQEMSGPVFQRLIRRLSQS

[5] = MIN6 cell viability loss – mouse insulinoma, cytotoxicity control, dose response (AID 2122); format: functional;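 note: confirmatory high-throughput counterscreen run to flag cytotoxic compounds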
[6] = fluconazole-exposed Candida albicans growth modulators – fluorescence, retest, confirmation (AID 2467); format: functional, cell-based
[7] = restored growth of temperature-sensitive Burl-1 yeast – whole organism, S. cerevisiae, Burl-1 ts mutant, luminescence, counter-screen for SUMOylation pathway inhibitor project, dose response (AID 463199); format: functional
[8] = biological target: T2, Dual specificity protein phosphatase 3 (Homo sapiens, UniProt P51452); assay: SAR VHR1 Fluorescent Assay for In Vitro dose response studies Set 2. [Related pubchem assays (depositor defined):AID1654, AID1661, AID1878]; format: functional
[9] = biological target: T3, Tyrosine-protein phosphatase non-receptor type 7 (Homo sapiens, UniProt P35236); assay: redox-active compounds inhibiting HePTP phosphatase – biochemical, fluorescence, mechanism study (AID 2068); format: functional
T3 sequence (P35236 whole entry): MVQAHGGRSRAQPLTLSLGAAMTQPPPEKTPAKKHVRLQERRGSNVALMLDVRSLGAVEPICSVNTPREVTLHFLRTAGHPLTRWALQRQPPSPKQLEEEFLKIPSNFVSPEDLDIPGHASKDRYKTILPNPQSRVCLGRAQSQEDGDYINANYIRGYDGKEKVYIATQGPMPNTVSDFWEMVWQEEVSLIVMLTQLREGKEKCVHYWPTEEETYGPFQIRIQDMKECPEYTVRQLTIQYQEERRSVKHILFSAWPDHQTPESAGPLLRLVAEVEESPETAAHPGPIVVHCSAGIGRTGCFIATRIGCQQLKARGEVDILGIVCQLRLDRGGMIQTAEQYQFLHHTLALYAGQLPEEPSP

[10] = biological target: T4, Tyrosine-protein phosphatase non-receptor type 22 (Homo sapiens, UniProt Q9Y2R2); assay: inhibition of lymphoid tyrosine phosphatase LYP – biochemical, pCAP fluorogenic substrate, fluorescence, set 3, SAR follow-up (AID 449727); format: functional
T4 sequence (Q9Y2R2 whole entry): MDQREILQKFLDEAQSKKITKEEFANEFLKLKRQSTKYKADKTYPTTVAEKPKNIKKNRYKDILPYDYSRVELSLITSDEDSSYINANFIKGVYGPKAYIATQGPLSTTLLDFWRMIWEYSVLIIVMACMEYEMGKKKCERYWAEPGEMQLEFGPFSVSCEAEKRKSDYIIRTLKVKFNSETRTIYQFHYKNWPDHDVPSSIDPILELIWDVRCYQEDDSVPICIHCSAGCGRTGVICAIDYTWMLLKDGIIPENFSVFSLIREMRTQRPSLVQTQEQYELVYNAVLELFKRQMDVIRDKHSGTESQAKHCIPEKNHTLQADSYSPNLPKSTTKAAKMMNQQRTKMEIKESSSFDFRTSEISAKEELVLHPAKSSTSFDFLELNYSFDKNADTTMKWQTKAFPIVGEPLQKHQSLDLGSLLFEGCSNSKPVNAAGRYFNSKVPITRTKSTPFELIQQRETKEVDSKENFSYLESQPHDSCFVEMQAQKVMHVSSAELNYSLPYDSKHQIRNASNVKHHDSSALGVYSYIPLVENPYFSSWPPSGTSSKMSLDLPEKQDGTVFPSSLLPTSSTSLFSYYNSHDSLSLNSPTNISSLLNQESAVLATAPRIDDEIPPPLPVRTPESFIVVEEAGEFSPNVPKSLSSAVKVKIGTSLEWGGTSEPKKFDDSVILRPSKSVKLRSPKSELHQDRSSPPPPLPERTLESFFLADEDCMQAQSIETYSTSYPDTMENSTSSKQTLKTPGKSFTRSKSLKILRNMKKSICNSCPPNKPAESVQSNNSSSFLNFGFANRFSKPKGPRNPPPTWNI

[11] = biological target: Tyrosine-protein phosphatase non-receptor type 12 (Homo sapiens, UniProt Q05209); assay: SAR Selectivity Analysis of small molecule inhibitors of PEST using pCAP in a fluorescence assay. [Related pubchem assays (depositor defined):AID1779, AID1784, AID2135]; format: functional
[12] = biological target: T2, Dual specificity protein phosphatase 3; assay: SAR VHR1 Fluorescent Assay for In Vitro dose response studies. [Related pubchem assays (depositor defined):AID1654, AID1661, AID1878, AID1992, AID2004, AID2070, AID2085]; format: functional
[13] = biological target: T3, Tyrosine-protein phosphatase non-receptor type 7; assay: inhibition of hematopoietic tyrosine phosphatase HePTP – biochemical, set 2, SAR follow-up (AID 449736); format: functional
[14] = biological target: T4, Tyrosine-protein phosphatase non-receptor type 22; assay: SAR LYP1 Fluorescent Assay using OMFP substrate for In Vitro dose response studies - Set 3. [Related pubchem assays (depositor defined):AID1779, AID1784, AID2140, AID2686]; format: functional
[15] = biological target: Dual specificity protein phosphatase 6 (Rattus norvegicus, UniProt Q64346); format: functional;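 note: confirmatory in vitro dose-response testing of MKP-3 inhibition; recombinant His-tagged MKP-3 made in E. coli BL21 with OMFP substrate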
[16] = biological target: T2, Dual specificity protein phosphatase 3; assay: MOA VHR1 Fluorescent secondary assay for identification of redox-state modulating compounds. [Related pubchem assays (depositor defined):AID1654, AID1661, AID1878, AID1957]

T2 sequence (P51452 whole entry): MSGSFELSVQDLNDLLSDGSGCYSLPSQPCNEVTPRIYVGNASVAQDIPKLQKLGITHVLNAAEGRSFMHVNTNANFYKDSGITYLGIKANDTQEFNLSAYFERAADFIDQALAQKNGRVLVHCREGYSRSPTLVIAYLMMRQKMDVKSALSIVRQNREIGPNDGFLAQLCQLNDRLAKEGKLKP
Chain of Dual specificity protein phosphatase 6 (Q64346 whole entry): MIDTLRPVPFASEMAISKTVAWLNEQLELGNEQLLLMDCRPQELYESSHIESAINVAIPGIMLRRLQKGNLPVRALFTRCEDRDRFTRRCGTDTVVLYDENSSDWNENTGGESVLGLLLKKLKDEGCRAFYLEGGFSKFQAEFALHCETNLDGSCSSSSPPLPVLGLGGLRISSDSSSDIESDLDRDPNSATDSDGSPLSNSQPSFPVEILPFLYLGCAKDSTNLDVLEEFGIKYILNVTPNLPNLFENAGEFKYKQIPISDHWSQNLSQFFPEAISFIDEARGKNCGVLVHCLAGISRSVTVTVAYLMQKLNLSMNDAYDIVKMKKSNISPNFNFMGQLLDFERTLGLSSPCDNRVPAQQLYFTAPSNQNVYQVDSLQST
Chain of Tyrosine-protein phosphatase non-receptor type 12 (Q05209 whole entry): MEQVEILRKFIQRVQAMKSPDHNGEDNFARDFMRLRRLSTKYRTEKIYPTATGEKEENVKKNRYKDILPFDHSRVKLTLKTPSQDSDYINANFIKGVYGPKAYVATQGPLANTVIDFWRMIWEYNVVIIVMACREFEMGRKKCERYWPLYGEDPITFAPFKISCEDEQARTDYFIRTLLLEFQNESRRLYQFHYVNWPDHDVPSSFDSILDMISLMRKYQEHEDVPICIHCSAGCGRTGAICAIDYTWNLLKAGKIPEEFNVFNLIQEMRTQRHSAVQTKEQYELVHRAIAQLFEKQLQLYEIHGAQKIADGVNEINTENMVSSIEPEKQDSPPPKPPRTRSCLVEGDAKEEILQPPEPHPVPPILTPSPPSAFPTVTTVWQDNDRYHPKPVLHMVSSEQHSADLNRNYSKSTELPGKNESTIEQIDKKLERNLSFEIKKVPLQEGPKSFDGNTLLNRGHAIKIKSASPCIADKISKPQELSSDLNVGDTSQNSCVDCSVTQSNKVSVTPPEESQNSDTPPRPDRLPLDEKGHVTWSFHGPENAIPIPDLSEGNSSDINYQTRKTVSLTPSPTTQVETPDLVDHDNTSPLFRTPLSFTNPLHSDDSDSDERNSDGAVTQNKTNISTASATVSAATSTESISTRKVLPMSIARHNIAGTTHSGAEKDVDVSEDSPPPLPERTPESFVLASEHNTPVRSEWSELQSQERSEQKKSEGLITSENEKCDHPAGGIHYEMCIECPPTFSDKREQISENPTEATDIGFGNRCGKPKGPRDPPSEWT
Chain of ATP-dependent molecular chaperone HSP82 (C4YTQ8 whole entry): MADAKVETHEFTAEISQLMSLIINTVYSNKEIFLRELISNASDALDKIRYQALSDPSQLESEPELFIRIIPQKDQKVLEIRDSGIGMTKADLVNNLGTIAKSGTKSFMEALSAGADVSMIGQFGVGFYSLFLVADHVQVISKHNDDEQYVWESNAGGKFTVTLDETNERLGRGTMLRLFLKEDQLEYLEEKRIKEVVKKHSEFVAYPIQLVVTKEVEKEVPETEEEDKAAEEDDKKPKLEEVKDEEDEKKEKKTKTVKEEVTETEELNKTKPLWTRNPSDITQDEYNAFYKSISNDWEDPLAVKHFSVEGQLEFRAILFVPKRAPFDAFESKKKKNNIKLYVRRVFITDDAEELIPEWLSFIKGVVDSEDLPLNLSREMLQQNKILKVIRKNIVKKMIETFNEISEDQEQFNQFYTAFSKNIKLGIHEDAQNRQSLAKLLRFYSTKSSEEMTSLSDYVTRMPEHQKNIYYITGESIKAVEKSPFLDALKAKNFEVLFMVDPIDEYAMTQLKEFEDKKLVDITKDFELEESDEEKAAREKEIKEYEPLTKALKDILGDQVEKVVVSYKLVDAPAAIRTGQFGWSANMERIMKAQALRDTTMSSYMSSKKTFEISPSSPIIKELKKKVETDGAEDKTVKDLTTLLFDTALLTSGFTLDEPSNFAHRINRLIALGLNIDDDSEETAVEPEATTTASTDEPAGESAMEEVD

Structure (SMILES): CCCCCCC[n+]1ccc(-c2cc[n+](CCCCCCC)cc2)cc1
- EC50 [1]: 64.9 µM (active)
- AC50 (INS1): 0.22 µM (active)
- EC50 [2]: > 160 µM (inactive)
- IC50 [3]: 2.74 µM (active)
- EC50 [4]: > 180 µM (inactive)
- IC50 [5]: 3.65 µM (active)
- EC50 [6]: 0.055 µM (active)

Structure (SMILES): CCC1SC2=NC(C)=C(C(=O)OCCOC)C(c3ccc(C(=O)OC)cc3)N2C1=O (configuration not stated)
- AC50 [7]: 50.8 µM (active)

Structure (SMILES): CCOC(=O)C1=C(C)N=c2s/c(=C\c3cc(Cl)c(OCC(=O)O)c(Cl)c3)c(=O)n2C1c1cccc(OC)c1 (configuration not stated)
- IC50 [8]: 31.9 µM (active)
- IC50 [9]: 1.95 µM (active)
- IC50 [10]: 34.1 µM (active)
- IC50 [11]: 7.99 µM (active)
- IC50 [12]: 13.4 µM (active)
- IC50 [13]: 1.22 µM (active)
- IC50 [14]: 44.6 µM (active)
- IC50 [15]: 49.7 µM (active)
- IC50 [16]: 2.76 µM (active)
